Test [1] concerns all tested cancer cells (Tab. 1). As to the kind of experiment: Proliferation of all tested tumor cell lines (Table 1). It counts as cell-based. As to conditions: 19 tumor cell lines of Tab. 1. The source says: The inventors have tested 19 different tumor cell lines in total, including five melanoma cell lines, two liver cancer cell lines, three breast cancer cell lines, three colon cancer cell lines, two prostate cancer cell lines, two lung cancer cell lines and to renal cancer cell lines.

Test [2] has as its system histon protein H3 acetylation in SK-MEL-28 melanoma cells. Description: Western blot of acetylated histon H3, SK-MEL-28. It counts as cell-based, human. The conditions noted are these: SK-MEL-28, 100 μM, two hours, vs. DMSO control. The method, then:
FIG. 4: 6-PN and 8-PN induce a hyper acetylation in SK-MEL-28 melanoma cells. Western blot analysis of acetylated histon complex H3 in cellular lysates of BLM and SK-MEL-28 cells treated with 100 μM 6-PN or 8-PN for 1, 2, 4, 12 and 24 h, or with 100 μM SAHA (as reference HDACi) for 24 h. Equal protein loading was verified by vinculin staining (lower rows). At 24 hours (BLM) and 2 hours (SK-MEL-28) after the PN treatment a prominent up-regulation of ac-H3 is detectable. The protein expression levels were estimated performing a densitometric analysis.
The following antibodies were used: Anti-Vinculin and Anti-Actin (1:5000, Sigma-Aldrich), Anti-Acetyl-Histon H3 (1:5000, Millipore, Billerica, USA), Anti-Caspase-3 (1:1000), Anti-AKT, Anti-pAKT, Anti-ERK, Anti-pERK, […], Anti-p70S6 Kinase, and Anti-pS6 protein (1:1000), all from Cell Signaling, Frankfurt, Germany), Anti-LC3 (1:5000, Sigma-Aldrich).
An incubation of cells with HDACi induces generally a hyperacetylation of histon proteins. Therefore, the acetylation status of the histon protein H3 after treatment with 6-PN or 8-PN was investigated. Corresponding to the HDAC screening results, a direct effect was monitored. […] SAHA was used as control HDACi (at 100 μM, 24 hours treatment).
(In general: In western blotting, separated proteins are transferred to a membrane and probed.)

The subject of test [3] is SK-MEL-28 melanoma cells. As to the kind of experiment: Apoptosis antibody array (35 proteins). It counts as cell-based, human. The conditions noted are these: SK-MEL-28, 100 μM, 4 hours. As for the experimental part: Apoptosis assay (35 proteins) performed on lysates of SK-MEL-28 melanoma cells 4 hours after treatment with 100 μM of 6-PN or 8-PN. Protein expression levels were estimated performing a densitometric analysis. Neither 6-PN nor 8-PN yielded a significant change of expression of the analyzed proteins involved in apoptosis.
Testing of apoptosis induction was performed with the human Proteom-Profiler-Apoptosis-Antibody-Array-Kit (R & D Systems, Wiesbaden, Germany) as described by the manufacturer after treatment of SK-MEL-28 melanoma cells with 100 μM 6-PN or 100 μM 8-PN for 4 hours.
To further analyze the possibility of apoptosis induction, an extensive apoptosis assay was performed on SK-MEL-28 melanoma cells 4 hours after treatment with 100 μM 6-PN or 8-PN (FIG. 9). […] This was verified by FACS cell cycle analyses to screen for a possible increase of the sub-G1 fraction of cells (apoptotic cells) or for the induction of a G2 arrest (inhibition of proliferation). […] To further differentiate between the induction of apoptosis and/or necrosis an PI/Annexin V staining of SK-MEL-28 and BLM cells was performed 4 hours and 24 hours after the treatment with 6-PN or 8-PN; 10 μM staurosporin (6 hours treatment) was used as positive control for the induction of apoptosis; DMSO treatment was used as vehicle control. The cells were then analyzed by FACS.

In test [4] the test system is BLM melanoma cells. As to the kind of experiment: Organotypic human epidermal skin reconstructs, BLM. It counts as cell-based. The conditions noted are these: 100 μM, 40× magnification. As for the experimental part:
FIG. 11: 6-PN and 8-PN reduce proliferation and invasion of BLM and LOXIMVI melanoma cells in human epidermal skin reconstructs and induce little embryo toxicity. (A) BLM melanoma cells and keratinocytes were seeded on top of a collagen matrix populated by fibroblasts. After 16 days a keratinizing stratified epithelium with a rudimentary corium is formed. […] (B) Similar results were obtained for LOXIMVI melanoma cells under the same treatment conditions. Only nests of dead, MIB1 negative LOXIMVI cells were detected after treatment with the PNs. […]
In this assay, keratinocytes and melanoma cells are seeded on top of a collagen matrix populated by fibroblasts. […] Untreated control BLM cells (depicting 70-80% proliferation, determined by MIB1 immunhistochemistry) had formed a large tumor in the epidermal part of the reconstruct and had invaded the corium (FIG. 11A, upper panel). To determine the amount of proliferating cells, the number of MIB1 positive melanoma cells per power field in the epidermal part of the reconstruct at the epidermal-dermal border was counted (40× magnification, n=5 adjacent fields examined). Further, the number of melanoma cells invading the dermal part of the reconstruct was counted in the same high power fields. In reconstructs with untreated BLM cells, 103±15 MIB1 positive cells and 39±13 invasive cells were counted (FIG. 11A, upper panel). […]

Test [5] deals with MRP1 (Homo sapiens, UniProt P33527). As to conditions: cited from earlier work.
Chain of MRP1 (P33527 whole entry): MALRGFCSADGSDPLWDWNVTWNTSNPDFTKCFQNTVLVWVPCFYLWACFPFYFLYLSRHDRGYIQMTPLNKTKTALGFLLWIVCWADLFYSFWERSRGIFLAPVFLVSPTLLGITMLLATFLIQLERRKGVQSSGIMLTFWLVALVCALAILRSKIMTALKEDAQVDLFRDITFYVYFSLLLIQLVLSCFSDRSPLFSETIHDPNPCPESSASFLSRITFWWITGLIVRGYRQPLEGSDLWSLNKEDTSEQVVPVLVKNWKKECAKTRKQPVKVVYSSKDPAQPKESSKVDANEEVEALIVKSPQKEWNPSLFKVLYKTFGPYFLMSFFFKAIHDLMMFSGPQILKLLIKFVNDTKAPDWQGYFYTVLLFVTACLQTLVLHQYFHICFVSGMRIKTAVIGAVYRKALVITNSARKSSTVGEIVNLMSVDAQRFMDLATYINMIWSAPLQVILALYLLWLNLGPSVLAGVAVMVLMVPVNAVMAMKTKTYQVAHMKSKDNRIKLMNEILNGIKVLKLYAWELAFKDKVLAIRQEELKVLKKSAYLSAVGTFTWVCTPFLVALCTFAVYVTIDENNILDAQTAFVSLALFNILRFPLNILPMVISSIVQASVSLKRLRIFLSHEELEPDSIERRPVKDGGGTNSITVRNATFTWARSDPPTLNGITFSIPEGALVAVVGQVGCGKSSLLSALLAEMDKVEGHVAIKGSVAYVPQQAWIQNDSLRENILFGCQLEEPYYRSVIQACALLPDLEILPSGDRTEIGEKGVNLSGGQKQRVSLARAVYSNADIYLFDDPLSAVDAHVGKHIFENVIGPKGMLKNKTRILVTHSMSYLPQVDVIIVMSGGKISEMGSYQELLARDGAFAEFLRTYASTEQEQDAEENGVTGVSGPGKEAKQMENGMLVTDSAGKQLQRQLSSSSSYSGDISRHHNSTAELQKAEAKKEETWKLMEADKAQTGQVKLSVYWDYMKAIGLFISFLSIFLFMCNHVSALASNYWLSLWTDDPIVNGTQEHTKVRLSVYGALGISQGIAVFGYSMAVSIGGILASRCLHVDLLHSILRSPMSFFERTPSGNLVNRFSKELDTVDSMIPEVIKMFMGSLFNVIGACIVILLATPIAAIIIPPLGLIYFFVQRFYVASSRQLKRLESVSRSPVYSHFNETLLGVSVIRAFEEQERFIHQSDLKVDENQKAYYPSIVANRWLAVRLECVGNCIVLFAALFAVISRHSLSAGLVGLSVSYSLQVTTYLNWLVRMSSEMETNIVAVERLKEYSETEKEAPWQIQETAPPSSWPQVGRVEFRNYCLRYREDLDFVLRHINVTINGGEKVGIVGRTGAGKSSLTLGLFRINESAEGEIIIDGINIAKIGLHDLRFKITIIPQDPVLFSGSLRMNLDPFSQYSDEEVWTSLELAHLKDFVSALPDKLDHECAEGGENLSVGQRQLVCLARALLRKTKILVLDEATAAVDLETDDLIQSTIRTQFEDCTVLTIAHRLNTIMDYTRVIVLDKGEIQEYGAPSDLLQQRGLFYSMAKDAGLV

The text below walks through data of patent US20160067211A1, “PHARMACEUTICAL COMPOSITION” (Eberhard Karls Universitaet Tuebingen Medizinische Fakultaet, priority 2013, published 2016).

With `CC(C)=CCc1c(O)cc(O)c2c1OC(c1ccc(O)cc1)CC2=O` (stereo not drawn) [8-PN, 5,7-Dihydroxy-2-(4-hydroxy-phenyl)-8-(3-methyl-but-2-enyl)-chroman-4-one], the “cell proliferation in all tested cancer cells” value in test [1] is on record as “effectively reduce cell proliferation”. Besides, the “histon complex H3 acetylation” value in test [2] is on record as “massive increase”. In addition, the “apoptosis induction (expression of 35 apoptosis proteins, densitometric)” value in test [3] was “not apoptosis related”. Also, in test [4] (untreated 39±13), the “invasive cells per high power field” value turned out to be 6±2. In addition, the “MIB1 positive cells per high power field” value in test [4] (untreated 103±15) is recorded as 16±4. The “inhibition of MRP1” value in test [5] is recorded as “inhibition”.
